Patent US11447517B2, “Galactoside inhibitor of galectins” (GALECTO BIOTECH AB, priority 2018, dated 2022)

Experiments:
[1] = Uptake over CACO-2 cell monolayers; assay type: in vitro ADME; conditions: human; for Papp A→B: apical to basolateral; for Papp B→A: basolateral to apical; for efflux ratio: read-out: Efflux ratio Papp (B > A/A > B)
Description: Uptake of a drug over the intestine can be predicted measuring the uptake over a monolayer of CACO-2 cells measured as Papp(10^-6 cm/s). […] By introduction of small alkyl substituents to the galactoside 2-OH such as compounds of formula (1) results in low or no efflux combined with a high uptake (Papp >10 10^-6 cm/s) over CACO-2 cells from the apical to the basolateral side of the cells.

[2] = biological target: galectin-3 (Homo sapiens (Human), UniProt P17931); test: Fluorescence anisotropy assay, inhibition of galectin / fluorescein tagged saccharide probe interaction; assay type: binding
Method: Evaluation of Kd Values The affinity of Example 1-71 for galectins were determined by a fluorescence anisotropy assay where the compound was used as an inhibitor of the interaction between galectin and a fluorescein tagged saccharide probe as described Sörme, P., Kahl-Knutsson, B., Huflejt, M., Nilsson, U. J., and Leffler H. (2004) Fluorescence polarization as an analytical tool to evaluate galectin-ligand interactions. Anal. Biochem. 334: 36-47, (Sörme et al., 2004) and Monovalent interactions of Galectin-1 By Salomonsson, Emma; Larumbe, Amaia; Tejler, Johan; Tullberg, Erik; Rydberg, Hanna; Sundin, Anders; Khabut, Areej; Frejd, Torbjorn; Lobsanov, Yuri D.; Rini, James M.; et al, From Biochemistry (2010), 49(44), 9518-9532, (Salomonsson et al., 2010). […] 100 nM albumin was included as a carrier to prevent protein loss at such low concentration of galectin.

galectin-3, sequence (P17931 whole entry): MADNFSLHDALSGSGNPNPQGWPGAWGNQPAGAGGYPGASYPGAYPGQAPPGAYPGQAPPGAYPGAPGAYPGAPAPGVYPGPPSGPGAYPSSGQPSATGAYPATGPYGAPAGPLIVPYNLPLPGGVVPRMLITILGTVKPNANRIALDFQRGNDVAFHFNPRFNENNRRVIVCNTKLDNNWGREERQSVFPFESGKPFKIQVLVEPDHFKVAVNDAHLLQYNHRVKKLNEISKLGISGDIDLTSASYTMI

## Cc1ccc(-c2cn([C@@H]3C(O)[C@@H](Sc4cc(Cl)cnc4C#N)OC(CO)[C@@H]3O)nn2)cc1F (stereo partly shown)
[1]
  Papp A→B: 3 ×10⁻⁶ cm/s
  Papp B→A: 30 ×10⁻⁶ cm/s
  efflux ratio: 10

## N#Cc1ncc(Cl)cc1S[C@H]1OC(CO)[C@H](O)[C@H](n2cc(-c3cc(F)c(Cl)c(F)c3)nn2)C1O (stereo partly shown)
[1]
  Papp A→B: 5 ×10⁻⁶ cm/s
  Papp B→A: 46 ×10⁻⁶ cm/s
  efflux ratio: 9

## OCC1O[C@H](Sc2cncc(Cl)c2)C(O)[C@@H](n2cc(-c3cc(F)c(F)c(F)c3)nn2)[C@H]1O (stereo partly shown)
[1]
  Papp A→B: 4 ×10⁻⁶ cm/s
  Papp B→A: 36 ×10⁻⁶ cm/s
  efflux ratio: 9

## CO[C@@H]1[C@@H](n2cc(-c3cc(F)c(F)c(F)c3)nn2)[C@@H](O)[C@@H](CO)O[C@@H]1Sc1cncc(Br)c1 [Example 1, 5-Bromopyridin-3-yl 3-deoxy-3-[4-(3,4,5-trifluorophenyl)-1H-1,2,3-triazol-1-yl]-2-O-methyl-1-thio-α-D-galactopyranoside]
[2]
  Kd: 25 nM
[1]
  Papp A→B: 30 ×10⁻⁶ cm/s
  Papp B→A: 38 ×10⁻⁶ cm/s
  efflux ratio: 1.2

## CO[C@@H]1[C@@H](n2cc(-c3ccc(C)c(F)c3)nn2)[C@@H](O)[C@@H](CO)O[C@@H]1Sc1cc(Cl)cnc1C#N [Example 13, 5-Chloro-2-cyanopyridin-3-yl 3-deoxy-3-[4-(3-fluoro-4-methylphenyl)-1H-1,2,3-triazol-1-yl]-2-O-methyl-1-thio-α-D-galactopyranoside]
[2]
  Kd: 14 nM
[1]
  Papp A→B: 18 ×10⁻⁶ cm/s
  Papp B→A: 23 ×10⁻⁶ cm/s
  efflux ratio: 1.3

## CO[C@@H]1[C@@H](n2cc(-c3ccc(C)c(F)c3)nn2)[C@@H](O)[C@@H](CO)O[C@@H]1Sc1cncc(Cl)c1 [Example 35, 5-Chloropyridin-3-yl 3-deoxy-3-[4-(3-fluoro-4-methylphenyl)-1H-1,2,3-triazol-1-yl]-2-O-methyl-1-thio-α-D-galactopyranoside]
[2]
  Kd: 45 nM
[1]
  Papp A→B: 31 ×10⁻⁶ cm/s
  Papp B→A: 45 ×10⁻⁶ cm/s
  efflux ratio: 1.4

## CO[C@@H]1[C@@H](n2cc(-c3ccc(C)c(F)c3)nn2)[C@@H](O)[C@@H](CO)O[C@@H]1Sc1cncc(Br)c1 [Example 36, 5-Bromopyridin-3-yl 3-deoxy-3-[4-(3-fluoro-4-methylphenyl)-1H-1,2,3-triazol-1-yl]-2-O-methyl-1-thio-α-D-galactopyranoside]
[2]
  Kd: 26 nM
[1]
  Papp A→B: 28 ×10⁻⁶ cm/s
  Papp B→A: 32 ×10⁻⁶ cm/s
  efflux ratio: 1.1

## CO[C@@H]1[C@@H](n2cc(-c3ccc(C)c(F)n3)nn2)[C@@H](O)[C@@H](CO)O[C@@H]1Sc1cncc(Cl)c1 [Example 43, 5-Chloropyridin-3-yl 3-deoxy-3-[4-(6-fluoro-5-methylpyridin-2-yl)-1H-1,2,3-triazol-1-yl]-2-O-methyl-1-thio-α-D-galactopyranoside]
[2]
  Kd: 39 nM
[1]
  Papp A→B: 26 ×10⁻⁶ cm/s
  Papp B→A: 34 ×10⁻⁶ cm/s
  efflux ratio: 1.3

## CO[C@@H]1[C@@H](n2cc(-c3cc(F)c(F)c(F)c3)nn2)[C@@H](O)[C@@H](CO)O[C@@H]1Sc1cc(Cl)cnc1C#N [Example 46, 5-Chloro-2-cyanopyridin-3-yl 3-deoxy-3-[4-(3,4,5-trifluorophenyl)-1H-1,2,3-triazol-1-yl]-2-O-methyl-1-thio-α-D-galactopyranoside]
[2]
  Kd: 35 nM

## CO[C@@H]1[C@@H](n2cc(-c3cc(F)c(Cl)c(F)c3)nn2)[C@@H](O)[C@@H](CO)O[C@@H]1Sc1cc(Cl)cnc1C#N [Example 47, 5-Chloro-2-cyanopyridin-3-yl 3-[4-(4-chloro-3,5-difluorophenyl)-1H-1,2,3-triazol-1-yl]-3-deoxy-2-O-methyl-1-thio-α-D-galactopyranoside]
[2]
  Kd: 34 nM

## CO[C@@H]1[C@@H](n2cc(-c3ccc(Cl)c(F)c3)nn2)[C@@H](O)[C@@H](CO)O[C@@H]1Sc1cc(Cl)cnc1C#N [Example 48, 5-Chloro-2-cyanopyridin-3-yl 3-[4-(4-chloro-3-fluorophenyl)-1H-1,2,3-triazol-1-yl]-3-deoxy-2-O-methyl-1-thio-α-D-galactopyranoside]
[2]
  Kd: 31 nM

## CO[C@@H]1[C@@H](n2cc(-c3cc(F)c(Cl)c(F)c3)nn2)[C@@H](O)[C@@H](CO)O[C@@H]1Sc1cc(C)cnc1C#N [Example 49, 2-Cyano-5-methylpyridin-3-yl 3-[4-(4-chloro-3,5-difluorophenyl)-1H-1,2,3-triazol-1-yl]-3-deoxy-2-O-methyl-1-thio-α-D-galactopyranoside]
[2]
  Kd: 50 nM

## CO[C@@H]1[C@@H](n2cc(-c3cc(F)c(Cl)c(F)c3)nn2)[C@@H](O)[C@@H](CO)O[C@@H]1Sc1cc(Br)cnc1C#N [Example 50, 5-Bromo-2-cyanopyridin-3-yl 3-[4-(4-chloro-3,5-difluorophenyl)-1H-1,2,3-triazol-1-yl]-3-deoxy-2-O-methyl-1-thio-α-D-galactopyranoside]
[2]
  Kd: 23 nM

## CO[C@@H]1[C@@H](n2cc(-c3ccc(Cl)c(F)c3)nn2)[C@@H](O)[C@@H](CO)O[C@@H]1Sc1cc(Br)cnc1C#N [Example 51, 5-Bromo-2-cyanopyridin-3-yl 3-[4-(4-chloro-3-fluorophenyl)-1H-1,2,3-triazol-1-yl]-3-deoxy-2-O-methyl-1-thio-α-D-galactopyranoside]
[2]
  Kd: 37 nM

## C#Cc1cncc(S[C@H]2O[C@H](CO)[C@H](O)[C@H](n3cc(-c4cc(F)c(Cl)c(F)c4)nn3)[C@H]2OC)c1 [Example 54, 5-Ethynylpyridin-3-yl 3-[4-(4-chloro-3,5-difluorophenyl)-1H-1,2,3-triazol-1-yl]-3-deoxy-2-O-methyl-1-thio-α-D-galactopyranoside]
[2]
  Kd: 35 nM

## CO[C@@H]1[C@@H](n2cc(-c3ccc(Cl)c(F)n3)nn2)[C@@H](O)[C@@H](CO)O[C@@H]1Sc1cc(Cl)cnc1C#N [Example 55, 5-Chloro-2-cyanopyridin-3-yl 3-[4-(5-chloro-6-fluoropyridin-2-yl)-1H-1,2,3-triazol-1-yl]-3-deoxy-2-O-methyl-1-thio-α-D-galactopyranoside]
[2]
  Kd: 350 nM

## C#Cc1cnc(C#N)c(S[C@H]2O[C@H](CO)[C@H](O)[C@H](n3cc(-c4cc(F)c(Cl)c(F)c4)nn3)[C@H]2OC)c1 [Example 56, 2-Cyano-5-ethynylpyridin-3-yl 3-[4-(4-chloro-3,5-difluorophenyl)-1H-1,2,3-triazol-1-yl]-3-deoxy-2-O-methyl-1-thio-α-D-galactopyranoside]
[2]
  Kd: 28 nM

## C#Cc1cnc(C#N)c(S[C@H]2O[C@H](CO)[C@H](O)[C@H](n3cc(-c4cc(F)c(C)c(F)c4)nn3)[C@H]2OC)c1 [Example 57, 2-Cyano-5-ethynylpyridin-3-yl 3-deoxy-3-[4-(3,5-difluoro-4-methylphenyl)-1H-1,2,3-triazol-1-yl]-2-O-methyl-1-thio-α-D-galactopyranoside]
[2]
  Kd: 35 nM

## CO[C@@H]1[C@@H](n2cc(-c3cc(F)c(Cl)c(F)c3)nn2)[C@@H](O)[C@@H](CO)O[C@@H]1Sc1cnc(C(F)(F)F)c(C#N)c1 [Example 58, 5-Cyano-6-trifluoromethylpyridin-3-yl 3-[4-(4-chloro-3,5-difluorophenyl)-1H-1,2,3-triazol-1-yl]-3-deoxy-2-O-methyl-1-thio-α-D-galactopyranoside]
[2]
  Kd: 190 nM

## CO[C@@H]1[C@@H](n2cc(-c3cc(F)c(F)c(F)c3)nn2)[C@@H](O)[C@@H](CO)O[C@@H]1Sc1cncc(C#N)c1 [Example 59, 5-Cyanopyridin-3-yl 3-deoxy-3-[4-(3,4,5-trifluorophenyl)-1H-1,2,3-triazol-1-yl]-2-O-methyl-1-thio-α-D-galactopyranoside]
[2]
  Kd: 76 nM

## CO[C@@H]1[C@@H](n2cc(-c3cc(F)c(Cl)c(F)c3)nn2)[C@@H](O)[C@@H](CO)O[C@@H]1Sc1cncc(C#N)c1 [Example 60, 5-Cyanopyridin-3-yl 3-[4-(4-chloro-3,5-difluorophenyl)-1H-1,2,3-triazol-1-yl]-3-deoxy-2-O-methyl-1-thio-α-D-galactopyranoside]
[2]
  Kd: 80 nM

## CO[C@@H]1[C@@H](n2cc(-c3cc(F)c(F)c(F)c3)nn2)[C@@H](O)[C@@H](CO)O[C@@H]1Sc1cc(Br)ccc1C(=O)N1CCC1 [Example 64, 2-(N-azetidinyl-carbonyl)-5-bromophenyl 3-deoxy-3-[4-(3,4,5-trifluorophenyl)-1H-1,2,3-triazol-1-yl]-2-O-methyl-1-thio-α-D-galactopyranoside]
[2]
  Kd: 16 nM

## CCO[C@@H]1[C@@H](n2cc(-c3cc(F)c(F)c(F)c3)nn2)[C@@H](O)[C@@H](CO)O[C@@H]1Sc1cc(Br)ccc1C(=O)N1CCC1 [Example 65, 2-(N-azetidinyl-carbonyl)-5-bromophenyl 3-deoxy-3-[4-(3,4,5-trifluorophenyl)-1H-1,2,3-triazol-1-yl]-2-O-ethyl-1-thio-α-D-galactopyranoside]
[2]
  Kd: 18 nM

## CO[C@@H]1[C@@H](n2cc(-c3cc(F)c(F)c(F)c3)nn2)[C@@H](O)[C@@H](CO)O[C@@H]1Sc1cc(Cl)ccc1C(=O)N1CCC1 [Example 70, 2-(N-azetidinyl-carbonyl)-5-chlorophenyl 3-deoxy-3-[4-(3,4,5-trifluorophenyl)-1H-1,2,3-triazol-1-yl]-2-O-methyl-1-thio-α-D-galactopyranoside]
[2]
  Kd: 12 nM

## CO[C@@H]1[C@@H](n2cc(-c3cc(F)c(Cl)c(F)c3)nn2)[C@@H](O)[C@@H](CO)O[C@@H]1Sc1ccc(Cl)c(Cl)c1 [Example 71, 3,4-Dichlorophenyl 3-[4-(4-chloro-3,5-difluorophenyl)-1H-1,2,3-triazol-1-yl]-3-deoxy-2-O-methyl-1-thio-α-D-galactopyranoside]
[2]
  Kd: 250 nM
